Series [1] deals with T1, Tyrosine-protein kinase JAK3 (Homo sapiens, UniProt P52333).
T1 sequence (P52333 whole entry): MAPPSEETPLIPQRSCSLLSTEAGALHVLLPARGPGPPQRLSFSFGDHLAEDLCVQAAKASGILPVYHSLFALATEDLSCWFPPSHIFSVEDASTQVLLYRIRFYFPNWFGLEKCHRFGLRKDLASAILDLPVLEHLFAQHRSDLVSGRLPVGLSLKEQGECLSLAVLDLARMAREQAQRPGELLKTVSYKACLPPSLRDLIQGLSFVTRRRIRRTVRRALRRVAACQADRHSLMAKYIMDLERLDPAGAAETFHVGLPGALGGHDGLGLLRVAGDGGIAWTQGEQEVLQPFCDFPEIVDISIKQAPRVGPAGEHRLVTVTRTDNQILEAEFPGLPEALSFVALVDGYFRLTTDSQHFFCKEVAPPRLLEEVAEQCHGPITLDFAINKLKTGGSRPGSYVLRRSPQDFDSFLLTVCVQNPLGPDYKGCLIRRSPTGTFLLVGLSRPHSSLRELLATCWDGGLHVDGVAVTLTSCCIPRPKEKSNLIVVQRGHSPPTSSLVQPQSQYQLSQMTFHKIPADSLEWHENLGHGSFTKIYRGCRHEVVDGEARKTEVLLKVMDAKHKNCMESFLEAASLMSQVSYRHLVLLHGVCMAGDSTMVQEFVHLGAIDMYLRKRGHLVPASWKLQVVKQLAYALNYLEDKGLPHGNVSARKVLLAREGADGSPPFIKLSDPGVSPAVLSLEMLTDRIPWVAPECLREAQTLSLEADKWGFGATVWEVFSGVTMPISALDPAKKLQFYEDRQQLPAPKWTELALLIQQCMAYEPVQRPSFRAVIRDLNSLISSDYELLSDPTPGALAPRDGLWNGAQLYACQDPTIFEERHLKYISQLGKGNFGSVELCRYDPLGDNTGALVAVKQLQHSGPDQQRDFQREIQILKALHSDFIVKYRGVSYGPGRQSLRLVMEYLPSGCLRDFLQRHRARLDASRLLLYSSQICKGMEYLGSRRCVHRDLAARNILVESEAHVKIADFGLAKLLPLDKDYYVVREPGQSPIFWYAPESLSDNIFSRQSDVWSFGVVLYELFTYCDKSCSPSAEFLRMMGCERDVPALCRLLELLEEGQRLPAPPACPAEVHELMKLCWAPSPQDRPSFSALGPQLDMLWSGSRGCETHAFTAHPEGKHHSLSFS
Kind of series: Inhibition of GST-tagged JAK3 (unknown origin) using fluoresceinated peptide as substrate measured after 3 hrs by electrophoresis method.

Series [2] deals with Tyrosine-protein kinase JAK1 (Homo sapiens, UniProt P23458). As to the kind of experiment: Inhibition of GST-tagged JAK1 (unknown origin) using fluoresceinated peptide as substrate measured after 3 hrs by electrophoresis method.
Tyrosine-protein kinase JAK1, sequence (P23458 whole entry): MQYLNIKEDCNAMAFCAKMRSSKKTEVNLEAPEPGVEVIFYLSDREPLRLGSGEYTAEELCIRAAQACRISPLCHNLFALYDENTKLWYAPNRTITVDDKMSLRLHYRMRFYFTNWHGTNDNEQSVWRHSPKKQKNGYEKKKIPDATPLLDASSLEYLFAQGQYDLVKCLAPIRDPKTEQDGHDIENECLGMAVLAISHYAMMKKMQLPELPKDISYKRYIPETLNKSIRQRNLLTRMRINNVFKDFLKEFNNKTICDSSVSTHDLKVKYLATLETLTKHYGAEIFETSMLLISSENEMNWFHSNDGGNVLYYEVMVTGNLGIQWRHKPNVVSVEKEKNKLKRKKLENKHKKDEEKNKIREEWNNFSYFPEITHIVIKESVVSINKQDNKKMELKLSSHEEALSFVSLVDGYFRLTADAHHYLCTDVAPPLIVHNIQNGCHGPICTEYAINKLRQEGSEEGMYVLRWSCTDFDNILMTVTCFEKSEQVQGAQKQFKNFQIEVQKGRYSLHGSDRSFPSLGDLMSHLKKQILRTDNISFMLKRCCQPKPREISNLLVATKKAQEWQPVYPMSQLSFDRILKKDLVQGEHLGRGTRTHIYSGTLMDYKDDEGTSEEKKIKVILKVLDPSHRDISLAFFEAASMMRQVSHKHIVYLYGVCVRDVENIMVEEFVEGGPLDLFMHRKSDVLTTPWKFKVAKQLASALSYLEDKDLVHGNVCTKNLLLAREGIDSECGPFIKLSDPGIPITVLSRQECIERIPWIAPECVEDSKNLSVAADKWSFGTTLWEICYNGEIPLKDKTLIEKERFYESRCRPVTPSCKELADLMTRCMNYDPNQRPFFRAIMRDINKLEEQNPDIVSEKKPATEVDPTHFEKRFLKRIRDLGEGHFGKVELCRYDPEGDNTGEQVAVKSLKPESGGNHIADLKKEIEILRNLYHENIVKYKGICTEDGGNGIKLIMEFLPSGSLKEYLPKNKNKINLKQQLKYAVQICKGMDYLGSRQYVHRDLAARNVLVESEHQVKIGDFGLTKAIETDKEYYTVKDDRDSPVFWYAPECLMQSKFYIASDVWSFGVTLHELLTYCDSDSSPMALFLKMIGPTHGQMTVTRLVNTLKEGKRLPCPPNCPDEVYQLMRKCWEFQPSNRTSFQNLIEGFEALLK
The target of series [3] is Non-receptor tyrosine-protein kinase TYK2 (Homo sapiens, UniProt P29597). As to the kind of experiment: Inhibition of […] TYK2 (unknown origin) using fluoresceinated peptide as substrate measured after 3 hrs by electrophoresis method.
Non-receptor tyrosine-protein kinase TYK2, sequence (P29597 whole entry): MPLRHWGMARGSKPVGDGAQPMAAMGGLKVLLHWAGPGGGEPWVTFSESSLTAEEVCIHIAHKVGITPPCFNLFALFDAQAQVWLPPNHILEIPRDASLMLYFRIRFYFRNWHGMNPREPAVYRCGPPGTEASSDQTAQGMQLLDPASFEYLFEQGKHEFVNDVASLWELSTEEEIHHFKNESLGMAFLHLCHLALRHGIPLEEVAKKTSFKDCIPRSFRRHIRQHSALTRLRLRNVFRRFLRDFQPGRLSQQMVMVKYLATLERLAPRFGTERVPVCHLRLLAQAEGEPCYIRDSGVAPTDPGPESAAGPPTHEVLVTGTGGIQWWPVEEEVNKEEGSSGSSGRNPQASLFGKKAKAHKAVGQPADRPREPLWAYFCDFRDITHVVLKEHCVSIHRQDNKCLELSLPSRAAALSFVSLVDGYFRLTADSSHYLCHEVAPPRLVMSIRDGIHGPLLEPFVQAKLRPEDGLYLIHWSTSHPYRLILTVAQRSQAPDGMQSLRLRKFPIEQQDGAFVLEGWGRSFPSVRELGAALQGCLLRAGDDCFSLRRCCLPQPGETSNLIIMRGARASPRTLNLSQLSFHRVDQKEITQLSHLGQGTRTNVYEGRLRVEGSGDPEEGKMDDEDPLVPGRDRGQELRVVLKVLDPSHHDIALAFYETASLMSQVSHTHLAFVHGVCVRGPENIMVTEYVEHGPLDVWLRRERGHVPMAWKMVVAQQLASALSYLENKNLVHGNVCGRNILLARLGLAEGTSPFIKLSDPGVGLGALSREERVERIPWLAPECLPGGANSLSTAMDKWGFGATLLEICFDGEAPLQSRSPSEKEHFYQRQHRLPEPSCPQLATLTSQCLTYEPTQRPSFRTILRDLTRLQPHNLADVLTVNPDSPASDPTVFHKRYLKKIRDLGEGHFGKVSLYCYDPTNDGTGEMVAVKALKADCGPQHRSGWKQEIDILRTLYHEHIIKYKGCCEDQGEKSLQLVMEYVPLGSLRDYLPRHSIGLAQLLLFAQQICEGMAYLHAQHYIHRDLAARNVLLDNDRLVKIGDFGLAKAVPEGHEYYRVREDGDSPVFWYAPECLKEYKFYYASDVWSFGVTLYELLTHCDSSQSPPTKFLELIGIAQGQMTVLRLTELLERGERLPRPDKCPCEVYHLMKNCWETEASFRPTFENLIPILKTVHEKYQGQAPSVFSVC
The target in series [4] is Tyrosine-protein kinase JAK2 (Homo sapiens, UniProt O60674). As to the kind of experiment: Inhibition of GST-tagged JAK2 (unknown origin) using fluoresceinated peptide as substrate measured after 3 hrs by electrophoresis method.
Tyrosine-protein kinase JAK2, sequence (O60674 whole entry): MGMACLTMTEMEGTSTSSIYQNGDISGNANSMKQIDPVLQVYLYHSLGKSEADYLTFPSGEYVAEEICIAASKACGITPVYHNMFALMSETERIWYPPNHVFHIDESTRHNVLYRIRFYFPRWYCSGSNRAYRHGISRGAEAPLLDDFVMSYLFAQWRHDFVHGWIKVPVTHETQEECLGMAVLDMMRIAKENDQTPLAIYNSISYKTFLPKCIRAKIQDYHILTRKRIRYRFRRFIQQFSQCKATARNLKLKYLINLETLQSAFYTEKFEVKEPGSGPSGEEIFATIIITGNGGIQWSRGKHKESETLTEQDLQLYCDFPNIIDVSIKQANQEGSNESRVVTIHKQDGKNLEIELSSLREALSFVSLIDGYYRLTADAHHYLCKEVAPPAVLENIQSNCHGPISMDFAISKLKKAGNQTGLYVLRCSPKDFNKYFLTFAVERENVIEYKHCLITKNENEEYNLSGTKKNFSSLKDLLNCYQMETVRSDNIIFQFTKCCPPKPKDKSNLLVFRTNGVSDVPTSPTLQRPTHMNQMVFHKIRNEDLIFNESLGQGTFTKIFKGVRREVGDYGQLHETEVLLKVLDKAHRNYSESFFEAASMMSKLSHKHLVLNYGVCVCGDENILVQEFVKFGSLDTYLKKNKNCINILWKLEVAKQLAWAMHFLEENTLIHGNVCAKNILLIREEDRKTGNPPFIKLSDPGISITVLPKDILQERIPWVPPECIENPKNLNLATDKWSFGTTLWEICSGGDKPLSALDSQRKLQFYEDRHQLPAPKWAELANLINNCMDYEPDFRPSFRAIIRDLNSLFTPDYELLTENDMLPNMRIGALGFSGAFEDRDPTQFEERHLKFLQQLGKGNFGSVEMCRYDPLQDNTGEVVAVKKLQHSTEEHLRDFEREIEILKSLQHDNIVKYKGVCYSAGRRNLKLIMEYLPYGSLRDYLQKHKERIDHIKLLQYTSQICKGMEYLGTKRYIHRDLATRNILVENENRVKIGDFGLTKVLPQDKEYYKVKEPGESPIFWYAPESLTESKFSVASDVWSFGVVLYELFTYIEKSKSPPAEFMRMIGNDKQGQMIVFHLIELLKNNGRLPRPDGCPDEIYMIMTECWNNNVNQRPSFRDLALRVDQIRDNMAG
Another series relates to Blood. Kind of series: Inhibition of IL2-induced IFNgamma production in CD3/CD28 antibody-stimulated human whole blood measured after 18 hrs by ELISA. In kind it is functional, tissue-based.
Series [5] is described as follows: Stability in mouse microsomes assessed as parent compound remaining measured after 10 mins. Type of series: ADME, Microsome. Conditions: read-out: Stability.
Series [6] can be described thus: Aqueous solubility of the compound. The following applies: buffer. In kind it is physicochemical.
In another series the test system is T-cell. Kind of series: Inhibition of IL2-induced human PBMC-derived T cell proliferation preincubated for 60 mins followed by IL-2 stimulation and measured after 3 days by [3H]thymidine incorporation based topcount method. In kind it is functional.
A short description of series [7]: Solubility of the compound in water. In kind it is physicochemical. Conditions: buffer.
Series [8] in a line: AUC in mouse at 10 mg/kg, po. Type of series: ADME, organism-based. The following applies: in vivo.
Series [9] can be described thus: AUC in mouse at 40 mg/kg, po. In kind it is ADME, organism-based. The following applies: in vivo.
Series [10] has as its system Mus musculus. Kind of series: Antiinflammatory activity in DBA1 mouse model of collagen-induced inflammation assessed as reduction in rheumatoid arthritis score in paw administered daily via oral gavage for 21 days starting from 21 days post-immunization and measured 3 times every week following booster immunization. In kind it is functional, organism-based.
Series [11] in a line: Prodrug conversion in DBA1 mouse assessed as 4-((2R,3R)-l,3-Dihydroxybutan-2-ylamino)-6-phenylpyrrolo [ 1,2-b]pyridazine-3 carboxamide formation at 140 mg/kg, po administered via gavage. Conditions: in vivo. In kind it is ADME, organism-based.
Series [12] can be described thus: Octanol-water partition coefficient, log P of the compound at pH 6.5 by HPLC analysis. Type of series: physicochemical.
A short description of series [13]: Stability in human liver microsomes. In kind it is ADME, Microsome.
A short description of series [14]: Stability in mouse liver microsomes. In kind it is ADME, Microsome.
Series [15] can be described thus: Stability in rat liver microsomes. Type of series: ADME, Microsome.
A short description of series [16]: Permeability of the compound by PAMPA. Type of series: ADME.
Series [17] in a line: Cmax in mouse at 10 mg/kg, po. Conditions: in vivo. More on the design: dose 10 mg/kg, route oral. In kind it is ADME, organism-based.
Series [18] is described as follows: Time at which plasma concentration stays above in vitro IC50 for inhibition of IL2-induced IFNgamma production in CD3/CD28 antibody-stimulated human whole blood in mouse at 10 mg/kg, po. In kind it is organism-based. The following applies: in vivo.
The nature of series [19]: Solubility of the compound in 5%EtOH/5%TPGS/90%PEG300 formulation. Type of series: physicochemical.
Series [20] in a line: Solubility of the compound in phosphate buffer using crystalline compound. Type of series: physicochemical.
Series [21] can be described thus: Solubility of the compound in water using amorphous compound. Type of series: physicochemical. The following applies: buffer.
A short description of series [22]: Cmax in mouse at 50 mg/kg, po administered as microsuspension formulation. More on the design: dose 50 mg/kg, route oral. In kind it is ADME, organism-based. Conditions: in vivo.
Series [23] is described as follows: Lipophilicity, log P of the compound. Type of series: physicochemical. The following applies: octanol/water.
Series [24] relates to Mus musculus. As to the kind of experiment: Antiinflammatory activity in DBA1 mouse model of collagen-induced inflammation assessed as reduction in rheumatoid arthritis score in paw at 6.6 mg/kg administered daily via oral gavage for 21 days starting from 21 days post-immunization and measured 3 times every week following booster immunization. Type of series: functional, organism-based.

Experimental findings from ChEMBL document CHEMBL4339199 (ACS Med Chem Lett, 2019) are described below.

Structures are written as SMILES. pIC50: −log10 of the molar value. Calls of active or inactive are those of the source. The calls are words filed in the database; no cut-off is given here. Where only a bound is given, the exact number is not on record here.

Turning to `CC(C)(C)CNc1c(C(N)=O)cnn2cc(-c3ccccc3)cc12`, the pIC50 is 8.10 in series [1]; 7.48 in series [2]; 7.15 in [3]; 6.96 in [4]; less than 5.40 in the series with Blood. Moreover, in series [5], the remaining at 10 min is less than 50%. In series [6], the solubility was less than 1 µg/mL.

For the compound `COc1ccc(-c2cc3c(N[C@H](CO)CC(C)C)c(C(N)=O)cnn3c2)cn1`, the pIC50 was 8.52 in series [1]; 7.64 in series [2]; 6.74 in [3]; 7.52 in [4]; 5.41 with Blood; 6.72 in the series with T-cell (Homo sapiens, T-cell).

Turning to `COc1ccc(-c2cc3c(NC(CO)[C@H](O)C4CC4)c(C(N)=O)cnn3c2)cn1` (stereo in doubt; 19), the negative logarithm of the IC50 (pIC50) is 8.70 in series [1]; 7.68 in series [2]; 6.89 in [3]; 7.35 in series [4]; 6.14 with Blood; 6.30 in the series on T-cell (t-cell).

With `C[C@@H](O)[C@@H](COP(=O)([O-])[O-])Nc1c(C(N)=O)cnn2cc(-c3ccccc3)cc12.[Na+].[Na+]`, the solubility result in series [7] was “Soluble”. Further, the values for the AUC in series [8] and in series [9] were 1 µM·h and 6 µM·h, respectively. Further, the Activity entry in the series on Mus musculus [10] is “Dose-dependent effect”. The Drug metabolism result in series [11] is listed as “Metabolite_Detected”.

Take `C[C@@H](O)[C@H](CO)Nc1c(C(N)=O)cnn2cc(-c3ccccc3)cc12`: the pIC50 in [1] was 6.74; in series [2] it was 6.96; in [3], 6.29; in [4] it was 5.77; in the series with T-cell (Homo sapiens, T-cell) it was 5.74.

In the case of `NC(=O)c1cnn2cc(-c3ccccc3)cc2c1NC1CCCC1`, the negative logarithm of the IC50 (pIC50) is 8.30 in [1]; 7.89 in [2]; 7.70 in [3]; 7.30 in [4]; less than 5.40 in the series on Blood. For the same compound, the remaining at 10 min in series [5] is less than 50%. In [6], this compound came in with a solubility of less than 1 µg/mL.

On to `CC(C)Nc1c(C(N)=O)cnn2cc(-c3ccccc3)cc12`, for which the pIC50 in [1] was 7.82; in series [2] it was 7.40; in series [3], 6.82; in series [4], 6.72; in the series on Blood, less than 5.40. Moreover, the remaining at 10 min in series [5] was less than 50%. This compound returned a solubility in series [6] of less than 1 µg/mL.

Consider `C[C@H](O)[C@@H](CO)Nc1c(C(N)=O)cnn2cc(-c3ccccc3)cc12`, for which the pIC50 in [1] is 7.89; in series [2], 7.42; in series [3], 6.68; in series [4], 6.43; with T-cell (Homo sapiens, T-cell), 6.06.

Consider `C[C@@H](O)[C@@H](CO)Nc1c(C(N)=O)cnn2cc(-c3ccccc3)cc12`, for which the pIC50 was 8.30 in [2]; 7.47 in series [3]; 7.15 in series [4]; 6.30 in the series with Blood; 7.15 with T-cell (Homo sapiens, T-cell). In [12], this compound gave a logD of 2.42. Besides, the Stability entry in series [13], in [14] and in series [15] was “Stable” throughout. In addition, the permeability entry in series [16] is “Permeable”. Moreover, the Cmax in series [17] was greater than 3000 nM; in series [22], 100 nM. Further, in [18], the Time turned out to be 3 h. For the same compound, the solubility result in series [19], in series [20] and in series [21] was “Insoluble” each time.

With `COc1ccc(-c2cc3c(N[C@H](CO)CC4CC4)c(C(N)=O)cnn3c2)cn1`, the pIC50 in series [1] is 9.00; in [2], 7.49; in series [3], 6.92; in series [4], 7.60; in the series with Blood, less than 5.40; in the series with T-cell (Homo sapiens, T-cell) it was 6.54.

With `CC(C)CNc1c(C(N)=O)cnn2cc(-c3ccccc3)cc12`, the pIC50 in series [1] was 8.40; in series [2], 7.52; in series [3] it was 7.20; in series [4], 6.80; with Blood, less than 5.40. The remaining at 10 min in series [5] was less than 50%. Also, the solubility in [6] is less than 1 µg/mL. The logP in [23] is 3.94.

Turning to `C[C@@H]1CCN(C(=O)CC#N)C[C@@H]1N(C)c1ncnc2[nH]ccc12`, in the series on Mus musculus [24], the outcome was Active.

As to `C[C@H](O)[C@H](CO)Nc1c(C(N)=O)cnn2cc(-c3ccccc3)cc12`, the negative logarithm of the IC50 (pIC50) in series [1] was 6.80; in [2], 6.74; in series [3] it was 5.89; in series [4], 5.74; in the series with T-cell (Homo sapiens, T-cell) it was 5.70.

As to `CC(C)CCNc1c(C(N)=O)cnn2cc(-c3ccccc3)cc12`, the pIC50 was 7.96 in series [1]; 6.96 in [2]; 6.80 in series [3]; 6.66 in [4]; less than 5.40 in the series with Blood. Besides, the remaining at 10 min in [5] was less than 50%. The solubility in [6] was less than 1 µg/mL. This compound gave a logP in series [23] of 5.08.

Take `COc1ccc(-c2cc3c(NC(CO)[C@H](O)C4CC4)c(C(N)=O)cnn3c2)cn1` (stereo in doubt; 18): the pIC50 is 7.00 in [1]; 6.21 in [2]; 5.70 in [3]; 5.85 in series [4]; 5.32 with T-cell (t-cell).

Take `COc1ccc(-c2cc3c(NC(CO)CO)c(C(N)=O)cnn3c2)cn1`: the pIC50 was 7.42 in series [1]; 6.70 in series [2]; 6.48 in [3]; 4.96 with T-cell (Homo sapiens, T-cell).

For `COc1ccc(-c2cc3c(N[C@H](CO)[C@@H](C)O)c(C(N)=O)cnn3c2)cn1`, the pIC50 in series [1] was 8.70; in series [3] it was 7.57; in series [4] it was 7.24; in the series on T-cell (Homo sapiens, T-cell), 6.43. Moreover, the logD in series [12] turned out to be 2.2.
